{
  "source": "patent US20220313650A1",
  "about": "“METHODS FOR TREATING NEURODEVELOPMENTAL DISORDERS” (The Broad Institute, Inc., priority 2019, published 2022)",
  "key": {"Ptchd1 KO mice [1]": {"test_system": "Ptchd1 KO mice", "test": "Open field test of locomotor activity, Ptchd1 KO mice", "format": "in vivo", "conditions": "90 minutes", "method": "For performing the open field test, mice were allowed to habituate to the behavioral testing room for 1 hour before the experiment. The locomotor activity in mice was evaluated over a 90 minute period in an automated Omnitech Digiscan apparatus (AccuScan Instruments). Locomotor activity was assessed as total distance traveled (m). For drug treatment experiments, mice received an intraperitoneal injection 15 minutes before the assay and then where placed kindly in the left corner, head facing into the corner.\nThe effects of mGluR2/3 activation on the locomotor activity of WT mice and Ptchd1 mutant mice were evaluated. In brief, all mice were treated with mGluR2/3 agonist, LY379268, at three different dosages (1 mg/kg, 5 mg/kg and 10 mg/kg) for open-field testing.\nHere, whether mGluR3 activation would rescue the hyperactivity phenotype of Ptchd1 KO mice was evaluated. Locomotor activity estimated as total distance travelled (in) was assessed over a 90 min period in an automated Omnitech Digiscan apparatus. For drug treatment experiments, mice were placed in the open-field arena for 30 minutes prior to Mavalon 63 (5 mg/kg and 10 mg/kg in saline; i.p.), or vehicle injections before being returned to the arena."}, "Ptchd1 KO mice [2]": {"test_system": "Ptchd1 KO mice", "test": "Auditory GO/NO GO noise filtering test, Ptchd1 KO mice", "format": "in vivo", "conditions": "LY379268 5 mg/kg i.p.", "method": "Behavioral Training and Testing was conducted. In brief, behavioral training and testing took place in grid-floor mounted, custom-built enclosures made of acrylic plastic (dimensions in cm: length: 15.2; width: 12.7; height: 24). All enclosures contained custom-designed operant ports, each of which was equipped with an IR LED/IR phototransistor pair (Digikey, Thief River Falls, Minn.) for nose-poke detection. Trial initiation was achieved through an initiation port mounted on the grid floor 6 cm away from the ‘response ports’ located at the front of the chamber. A pair of electrostatic speakers (Tucker Davis Technologies) producing the auditory stimuli were placed outside of the training apparatus and sound stimuli were conveyed via cylindrical tubes to apertures located at either side of the initiation port, allowing delivery of stereotypical stimuli across trials. All stimuli across tasks were generated by a TDT Rx8 sound system (Tucker-Davis Technologies, Alachua, Fla.). Sound stimuli were recorded and assessed for intensity using a prepolarized icp array microphone (PCB Piezotronics, Depew, N.Y.) after which frequency production was equalized using a software-based calibration via SigCalRP (Tucker-Davis Technologies, Alachua Fla.). […]\nThe sequence of “NO GO” stimuli followed a pre-determined pseudorandomized sequence which was shifted across testing sessions. […]"}},
  "note": "Entries after “also recorded” stand apart in the source; their conditions may differ.",
  "data": [
    {"smiles": "N[C@@]1(C(=O)O)COC2C(C(=O)O)C21", "note": "(stereo in doubt) [LY379268, (1R,4R,5S,6R)-4-Amino-2-oxabicyclo[3.1.0] hexane-4,6-dicarboxylic acid]", "values": [
      {"measurement": "total distance traveled", "setting": "Ptchd1 KO mice [1]; LY379268 5 mg/kg i.p.", "value": "traveled significantly less distances to a comparable level of wild type mice"},
      {"measurement": "total distance traveled", "setting": "Ptchd1 KO mice [1]; LY379268 10 mg/kg i.p.", "value": "traveled significantly less distances to a comparable level of wild type mice"},
      {"measurement": "percentage of correct responses, auditory stimuli embedded with noise", "setting": "Ptchd1 KO mice [2]", "value": "fully rescued noise filtering deficits in the Ptchd1 KO to control level; also recorded: rescued to control levels"}
    ]}
  ]
}
